Source: patent EP0071087A1, “Improved determination of creatine phosphokinase in body fluids” (SERAGEN DIAGNOSTICS, INC., priority 1981, dated 1983)

Molecular target: T1, Purified Human Erythrocyte Adenylate Kinase (Homo sapiens, UniProt P00568)
T1 construct: from tissue; host or cells: human erythrocytes
T1 sequence (P00568 1-194): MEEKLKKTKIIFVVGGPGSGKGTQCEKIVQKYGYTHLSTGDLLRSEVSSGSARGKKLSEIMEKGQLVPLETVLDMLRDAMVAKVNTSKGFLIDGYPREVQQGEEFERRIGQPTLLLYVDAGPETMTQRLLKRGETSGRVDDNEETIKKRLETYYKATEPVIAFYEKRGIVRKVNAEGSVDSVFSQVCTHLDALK
Assay: Inhibition of purified human erythrocyte adenylate kinase in a CPK-UV (Oliver-Rosalki) assay
Assay type: biochemical
Conditions: 37°C
Procedure: Table I illustrates the utilization of a high AMP/ ADP ratio in inhibiting purified human erythrocyte adenylate kinase. Residual AK activity is measured in reagent systems containing all necessary components of the Oliver-Rosalki CPK assay. The systems vary as a function of three components: AMP, ADP, and sodium fluoride. The data points cover a 1.43-5.72m Mole/liter ADP range and a 2.9-29.2m Mole/liter AMP range plus or minus 6m Mole/ liter NaF.
The reagents of Example 1 and 2 were utilized with the AMP and ADP concentration listed in the table, with or without 6 m mole/liter sodium fluoride.

Nc1ncnc2c1ncn2[C@@H]1O[C@H](COP(=O)(O)O)[C@@H](O)[C@H]1O [AMP, adenosine monophosphate]
Measured Residual Adenylate Kinase (+NaF) (ADP 1.43 mM, AMP 2.9 mM, AMP/ADP 2.0, 6 m mole/liter NaF): 24 U/l
Measured Residual Adenylate Kinase (-NaF) (ADP 1.43 mM, AMP 2.9 mM, AMP/ADP 2.0, no NaF): 103 U/l
Measured Residual Adenylate Kinase (+NaF) (ADP 1.43 mM, AMP 5.8 mM, AMP/ADP 4.1, 6 m mole/liter NaF): 13 U/l
Measured Residual Adenylate Kinase (-NaF) (ADP 1.43 mM, AMP 5.8 mM, AMP/ADP 4.1, no NaF): 61 U/l
Measured Residual Adenylate Kinase (+NaF) (ADP 1.43 mM, AMP 7.3 mM, AMP/ADP 5.1, 6 m mole/liter NaF): 10 U/l
Measured Residual Adenylate Kinase (-NaF) (ADP 1.43 mM, AMP 7.3 mM, AMP/ADP 5.1, no NaF): 56 U/l
Measured Residual Adenylate Kinase (+NaF) (ADP 1.43 mM, AMP 10.2 mM, AMP/ADP 7.1, 6 m mole/liter NaF): 7.7 U/l
Measured Residual Adenylate Kinase (-NaF) (ADP 1.43 mM, AMP 10.2 mM, AMP/ADP 7.1, no NaF): 35 U/l
Measured Residual Adenylate Kinase (+NaF) (ADP 1.43 mM, AMP 14.6 mM, AMP/ADP 10.2, 6 m mole/liter NaF): 5.3 U/l
Measured Residual Adenylate Kinase (-NaF) (ADP 1.43 mM, AMP 14.6 mM, AMP/ADP 10.2, no NaF): 333 U/l
Measured Residual Adenylate Kinase (+NaF) (ADP 1.43 mM, AMP 21.9 mM, AMP/ADP 15.3, 6 m mole/liter NaF): 4.6 U/l
Measured Residual Adenylate Kinase (-NaF) (ADP 1.43 mM, AMP 21.9 mM, AMP/ADP 15.3, no NaF): 19 U/l
Measured Residual Adenylate Kinase (+NaF) (ADP 1.43 mM, AMP 29.2 mM, AMP/ADP 20.4, 6 m mole/liter NaF): 1.7 U/l
Measured Residual Adenylate Kinase (-NaF) (ADP 1.43 mM, AMP 29.2 mM, AMP/ADP 20.4, no NaF): 17 U/l
Measured Residual Adenylate Kinase (+NaF) (ADP 2.86 mM, AMP 2.9 mM, AMP/ADP 1.0, 6 m mole/liter NaF): 51 U/l
Measured Residual Adenylate Kinase (-NaF) (ADP 2.86 mM, AMP 2.9 mM, AMP/ADP 1.0, no NaF): 166 U/l
Measured Residual Adenylate Kinase (+NaF) (ADP 2.86 mM, AMP 5.8 mM, AMP/ADP 2.0, 6 m mole/liter NaF): 26 U/l
Measured Residual Adenylate Kinase (-NaF) (ADP 2.86 mM, AMP 5.8 mM, AMP/ADP 2.0, no NaF): 126 U/l
Measured Residual Adenylate Kinase (+NaF) (ADP 2.86 mM, AMP 7.3 mM, AMP/ADP 2.6, 6 m mole/liter NaF): 22 U/l
Measured Residual Adenylate Kinase (-NaF) (ADP 2.86 mM, AMP 7.3 mM, AMP/ADP 2.6, no NaF): 93 U/l
Measured Residual Adenylate Kinase (+NaF) (ADP 2.86 mM, AMP 10.2 mM, AMP/ADP 3.6, 6 m mole/liter NaF): 17 U/l
Measured Residual Adenylate Kinase (-NaF) (ADP 2.86 mM, AMP 10.2 mM, AMP/ADP 3.6, no NaF): 84 U/l
Measured Residual Adenylate Kinase (+NaF) (ADP 2.86 mM, AMP 14.6 mM, AMP/ADP 5.1, 6 m mole/liter NaF): 13 U/l
Measured Residual Adenylate Kinase (-NaF) (ADP 2.86 mM, AMP 14.6 mM, AMP/ADP 5.1, no NaF): 64 U/l
Measured Residual Adenylate Kinase (+NaF) (ADP 2.86 mM, AMP 21.9 mM, AMP/ADP 7.7, 6 m mole/liter NaF): 10 U/l
Measured Residual Adenylate Kinase (-NaF) (ADP 2.86 mM, AMP 21.9 mM, AMP/ADP 7.7, no NaF): 32 U/l
Measured Residual Adenylate Kinase (+NaF) (ADP 2.86 mM, AMP 29.2 mM, AMP/ADP 10.2, 6 m mole/liter NaF): 5.3 U/l
Measured Residual Adenylate Kinase (-NaF) (ADP 2.86 mM, AMP 29.2 mM, AMP/ADP 10.2, no NaF): 28 U/l
Measured Residual Adenylate Kinase (+NaF) (ADP 5.72 mM, AMP 2.9 mM, AMP/ADP 0.51, 6 m mole/liter NaF): 108 U/l
Measured Residual Adenylate Kinase (-NaF) (ADP 5.72 mM, AMP 2.9 mM, AMP/ADP 0.51, no NaF): 203 U/l
Measured Residual Adenylate Kinase (+NaF) (ADP 5.72 mM, AMP 5.8 mM, AMP/ADP 1.0, 6 m mole/liter NaF): 55 U/l
Measured Residual Adenylate Kinase (-NaF) (ADP 5.72 mM, AMP 5.8 mM, AMP/ADP 1.0, no NaF): 186 U/l
Measured Residual Adenylate Kinase (+NaF) (ADP 5.72 mM, AMP 7.3 mM, AMP/ADP 1.3, 6 m mole/liter NaF): 54 U/l
Measured Residual Adenylate Kinase (-NaF) (ADP 5.72 mM, AMP 7.3 mM, AMP/ADP 1.3, no NaF): 126 U/l
Measured Residual Adenylate Kinase (+NaF) (ADP 5.72 mM, AMP 10.2 mM, AMP/ADP 1.8, 6 m mole/liter NaF): 37 U/l
Measured Residual Adenylate Kinase (-NaF) (ADP 5.72 mM, AMP 10.2 mM, AMP/ADP 1.8, no NaF): 114 U/l
Measured Residual Adenylate Kinase (+NaF) (ADP 5.72 mM, AMP 14.6 mM, AMP/ADP 2.6, 6 m mole/liter NaF): 31 U/l
Measured Residual Adenylate Kinase (-NaF) (ADP 5.72 mM, AMP 14.6 mM, AMP/ADP 2.6, no NaF): 108 U/l
Measured Residual Adenylate Kinase (+NaF) (ADP 5.72 mM, AMP 21.9 mM, AMP/ADP 3.8, 6 m mole/liter NaF): 21 U/l
Measured Residual Adenylate Kinase (-NaF) (ADP 5.72 mM, AMP 21.9 mM, AMP/ADP 3.8, no NaF): 66 U/l
Measured Residual Adenylate Kinase (+NaF) (ADP 5.72 mM, AMP 29.2 mM, AMP/ADP 5.1, 6 m mole/liter NaF): 13 U/l
Measured Residual Adenylate Kinase (-NaF) (ADP 5.72 mM, AMP 29.2 mM, AMP/ADP 5.1, no NaF): 62 U/l

sodium fluoride [NaF]
Measured Residual Adenylate Kinase (+NaF) (ADP 1.43 mM, AMP 0 mM, 6 m mole/liter NaF): 327 U/l
Measured Residual Adenylate Kinase (+NaF) (ADP 2.86 mM, AMP 0 mM, 6 m mole/liter NaF): 398 U/l
Measured Residual Adenylate Kinase (+NaF) (ADP 5.72 mM, AMP 0 mM, 6 m mole/liter NaF): 460 U/l
